Laboratory results: ChEMBL document CHEMBL1131777, “Analogs of 4-(3-bromo-8-methyl-10-methoxy-6,11-dihydro-5H-benzo[5,6]-cyclo hepta[1,2-b]pyridin-11-yl)-1-(4-pyridinylacetyl)piperidine N-oxide as inhibitors of farnesyl protein transferase” (Bioorg Med Chem Lett, 1999)

What follows are compounds tested against T1, Protein farnesyltransferase (Homo sapiens, UniProt P49354+P49356) (assay: In vitro inhibition of human Farnesyltransferase). Settings: not given.
Type: protein-complex assay
COc1cc(C)cc2c1C(C1CCN(C(=O)Cc3cc[n+]([O-])cc3)CC1)c1ncc(C)cc1CC2 (configuration not stated) was tested, and the IC50 was 34 nM. COc1cc(C)cc2c1[C@@H](C1CCN(C(=O)Cc3cc[n+]([O-])cc3)CC1)c1ncc(Br)cc1CC2 gave an IC50 of 3.6 nM. For CCc1cnc2c(c1)CCc1cc(C)cc(OC)c1C2C1CCN(C(=O)Cc2cc[n+]([O-])cc2)CC1 (configuration not stated), the IC50 was 74 nM. COc1cc(C)cc2c1C(C1CCN(C(=O)Cc3cc[n+]([O-])cc3)CC1)c1ncccc1CC2 (configuration not stated) showed an IC50 of 140 nM. Work on COc1cc(C)cc2c1C(C1CCN(C(=O)Cc3cc[n+]([O-])cc3)CC1)c1ncc(C3CC3)cc1CC2 (configuration not stated) yielded an IC50 of 200 nM. C=Cc1cnc2c(c1)CCc1cc(C)cc(OC)c1C2C1CCN(C(=O)Cc2cc[n+]([O-])cc2)CC1 (configuration not stated) showed an IC50 of 59 nM.

These compounds were tested against T1, Protein farnesyltransferase (assay: Percent inhibition of human Farnesyltransferase). Settings: concentration not given here.
Type: protein-complex assay
COc1cc(C)cc2c1C(C1CCN(C(=O)Cc3cc[n+]([O-])cc3)CC1)c1ncc(C(C)(C)O)cc1CC2 (configuration not stated) was tested, and the inhibition was 26%.
